“And” between values parts separate entries of the source, which are not always exact repeats. Identical values can stand only once. Like-named read-outs stand apart in the source and are kept apart here.
Legend:
[1] = 18-membered ring, DCM
[2] = test system: NCI-H358 (K-Ras G12C); experiment: pERK potency assay, NCI-H358; type: cell-based; conditions: Homo sapiens; NCI-H358 cells, 4 hours incubation with compound
Procedure: The purpose of this assay was to measure the ability of test compounds to inhibit K-Ras in cells. Activated K-Ras induces increased phosphorylation of ERK at Threonine 202 and Tyrosine 204 (pERK). This procedure measures a decrease in cellular pERK in response to test compounds. The procedure described below in NCI-H358 cells is applicable to K-Ras G12C. […]
NCI-H358 cells were grown and maintained using media and procedures recommended by the ATCC. On the day prior to compound addition, cells were plated in 384-well cell culture plates (40 μl/well) and grown overnight in a 37° C., 5% CO2 incubator. Test compounds were prepared in 10, 3-fold dilutions in DMSO, with a high concentration of 10 mM. On the day of assay, 40 nL of test compound was added to each well of cell culture plate using an Echo550 liquid handler (LabCyte®). Concentrations of test compound were tested in duplicate. After compound addition, cells were incubated 4 hours at 37° C., 5% CO2. Following incubation, culture medium was removed and cells were washed once with phosphate buffered saline.
In some experiments, cellular pERK level was determined using the AlphaLISA SureFire Ultra p-ERK1/2 Assay Kit (PerkinElmer). Cells were lysed in 25 μL lysis buffer, with shaking at 600 RPM at room temperature. Lysate (10 μL) was transferred to a 384-well Opti-plate (PerkinElmer) and 5 μL acceptor mix was added. After a 2-hour incubation in the dark, 5 μL donor mix was added, the plate was sealed, and incubated 2 hours at room temperature. Signal was read on an Envision plate reader (PerkinElmer) using standard AlphaLISA settings. Analysis of raw data was carried out in Excel (Microsoft) and Prism (GraphPad). Signal was plotted vs. the decadal logarithm of compound concentration, and IC50 was determined by fitting a 4-parameter sigmoidal concentration response model.
In other experiments, cellular pERK was determined by In-Cell Western. Following compound treatment, cells were washed twice with 200 μL tris buffered saline (TBS) and fixed for 15 minutes with 150 μL 4% formaldehyde in TBS. Fixed cells were washed 4 times for 5 minutes with TBS containing 0.1% Triton X-100 (TBST) and then blocked with 100 μL Odyssey blocking buffer (LI-COR) for 60 minutes at room temperature. Primary antibody (pERK, CST-4370, Cell Signaling Technology) was diluted 1:200 in blocking buffer, and 50 μL were added to each well and incubated overnight at 4° C. Cells were washed 4 times for 5 minutes with TBST. Secondary antibody (IR-800CW rabbit, LI-COR, diluted 1:800) and DNA stain DRAQ5 (LI-COR, diluted 1:2000) were added and incubated 1-2 hours at room temperature. Cells were washed 4 times for 5 minutes with TBST. Plates were scanned on a Li-COR Odyssey CLx Imager. Analysis of raw data was carried out in Excel (Microsoft) and Prism (GraphPad). Signal was plotted vs. the decadal logarithm of compound concentration, and IC50 was determined by fitting a 4-parameter sigmoidal concentration response model.

CCn1c(-c2cc(N3CCN4CCCC[C@@H]4C3)cnc2[C@H](C)OC)c2c3cc(ccc31)-c1cccc(c1)C[C@H](NC(=O)OC(C)(C)C)C(=O)N1CCC[C@H](N1)C(=O)OCC(C)(C)C2
ring closure, isolated yield ([1]; from CCn1c(-c2cc(N3CCN4CCCC[C@@H]4C3)cnc2[C@H](C)OC)c(CC(C)(C)CO)c2cc(-c3cccc(C[C@H](NC(=O)OC(C)(C)C)C(=O)N4CCC[C@@H](C(=O)O)N4)c3)ccc21, ester bond, EDCI/HOBt/DIPEA, 11.3 mM, 16.0 h): 62%

CCn1c(-c2cc(N3CCN4CCOC[C@@H]4C3)cnc2[C@H](C)OC)c2c3cc(ccc31)C1=CCCN(C1)C[C@H](NC(=O)OC(C)(C)C)C(=O)N1CCC[C@H](N1)C(=O)OCC(C)(C)C2
ring closure, isolated yield ([1]; from CCn1c(-c2cc(N3CCN4CCOC[C@@H]4C3)cnc2[C@H](C)OC)c(CC(C)(C)CO)c2cc(C3=CCCN(C[C@H](NC(=O)OC(C)(C)C)C(=O)N4CCC[C@@H](C(=O)O)N4)C3)ccc21, ester bond, EDC.HCl/HOBt/DIEA, 11.3 mM, 0.0 °C, 2.0 h): 67%

CO[C@@H](C)c1ncc(N2CCN3CCOC[C@@H]3C2)cc1-c1c2c3cc(ccc3n1CC(F)(F)F)-c1cccc(c1)C[C@H](NC(=O)OC(C)(C)C)C(=O)N1CCC[C@H](N1)C(=O)OCC(C)(C)C2
ring closure, isolated yield ([1]; from CO[C@@H](C)c1ncc(N2CCN3CCOC[C@@H]3C2)cc1-c1c(CC(C)(C)CO)c2cc(-c3cccc(C[C@H](NC(=O)OC(C)(C)C)C(=O)N4CCC[C@@H](C(=O)O)N4)c3)ccc2n1CC(F)(F)F, ester bond, EDCI/HOBt/DIPEA, 5.3 mM, 16.0 h): 98%

CO[C@@H](C)c1ncccc1-c1c2c3cc(ccc3n1CC(F)(F)F)-c1coc(n1)C[C@H](NC(=O)OCc1ccccc1)C(=O)N1CCC[C@H](N1)C(=O)OCC(C)(C)C2
ring closure, isolated yield ([1]; from CO[C@@H](C)c1ncccc1-c1c(CC(C)(C)COC(=O)[C@@H]2CCCNN2)c2cc(-c3coc(C[C@H](NC(=O)OCc4ccccc4)C(=O)O)n3)ccc2n1CC(F)(F)F, amide bond, EDCI/HOBt/DIEA, 6.3 mM, 16.0 h): 21%

CO[C@@H](C)c1ncccc1-c1c2c3cc(ccc3n1CC(F)(F)F)C1CCN(C1)C[C@H](NC(=O)OC(C)(C)C)C(=O)N1CCC[C@H](N1)C(=O)OCC(C)(C)C2
ring closure, isolated yield ([1]; from CO[C@@H](C)c1ncccc1-c1c(CC(C)(C)CO)c2cc(C3CCN(C[C@H](NC(=O)OC(C)(C)C)C(=O)N4CCC[C@@H](C(=O)O)N4)C3)ccc2n1CC(F)(F)F, ester bond, EDCI/HOBt/DIEA, 7.1 mM, 16.0 h): 21%

C=CC(=O)N1CCOC2(CCN(C(=O)N(C)[C@H](C(=O)N[C@H]3Cc4cncc(n4)-c4ccc5c(c4)c(c(-c4cccnc4[C@H](C)OC)n5CC)CC(C)(C)COC(=O)[C@@H]4CCCN(N4)C3=O)C(C)C)CC2)C1 (atropisomer, axis not shown) [EA36]
IC50 [2]: > 1000 nM

C=CC(=O)N1COC2(CCN(C(=O)N(C)[C@H](C(=O)N[C@H]3CC4=NC=C(O4)c4ccc5c(c4)c(c(-c4cccnc4[C@H](C)OC)n5CC)CC(C)(C)COC(=O)[C@@H]4CCCN(N4)C3=O)C(C)C)CC2)C1 (atropisomer, axis not shown) [EA37]
IC50 [2]: > 1000 nM

C=CC(=O)N1CCN(CC)C2(CCN(C(=O)N(C)[C@H](C(=O)N[C@H]3C[C@H]4CN(CCO4)c4ccc5c(c4)c(c(-c4cccnc4[C@H](C)OC)n5CC)CC(C)(C)COC(=O)[C@@H]4CCCN(N4)C3=O)C(C)C)CC2)C1 (atropisomer, axis not shown) [EA38]
IC50 [2]: > 1000 nM

C=CC(=O)N1CC2(CCN(C(=O)N(C)[C@H](C(=O)N[C@H]3C[C@H]4CN(CCO4)c4ccc5c(c4)c(c(-c4cccnc4[C@H](C)OC)n5CC)CC(C)(C)COC(=O)[C@@H]4CCCN(N4)C3=O)C(C)C)CC2)C1 (atropisomer, axis not shown) [EA121]
IC50 [2]: > 1000 nM

C=CC(=O)N1CCOC2(CCN(C(=O)N(C)[C@H](C(=O)N[C@H]3Cc4cncc(c4)-c4ccc5c(c4)c(c(-c4cccnc4[C@H](C)OC)n5CC)CC(C)(C)COC(=O)[C@@H]4CCCN(N4)C3=O)C(C)C)CC2)C1 (atropisomer, axis not shown) [EA124]
IC50 [2]: > 1000 nM

CCn1c(-c2cccnc2[C@H](C)OC)c2c3cc(ccc31)N1CCO[C@@H](C[C@H](NC(=O)[C@H](C(C)C)N(C)C(=O)N3CCC4(CC3)CN(C(=O)/C=C/CF)C4)C(=O)N3CCC[C@H](N3)C(=O)OCC(C)(C)C2)C1 (atropisomer, axis not shown) [EA128]
IC50 [2]: > 1000 nM

C=CC(=O)N1CCOC2(CCN(C(=O)N(C)[C@H](C(=O)N[C@H]3C[C@@]4(C)CN(CCO4)c4ccc5c(c4)c(c(-c4cccnc4[C@H](C)OC)n5CC)CC(C)(C)COC(=O)[C@@H]4CCCN(N4)C3=O)C(C)C)CC2)C1 (atropisomer, axis not shown) [EA130]
IC50 [2]: > 890 nM

C=CC(=O)N1CCOC2(C1)CN(C(=O)N(C)[C@H](C(=O)N[C@H]1C[C@H]3CN(CCO3)c3ccc4c(c3)c(c(-c3cccnc3[C@H](C)OC)n4CC)CC(C)(C)COC(=O)[C@@H]3CCCN(N3)C1=O)C(C)C)C2 (atropisomer, axis not shown) [EA136]
IC50 [2]: > 1000 nM

C=CC(=O)N1CCN(C)C2(CCN(C(=O)N(C)[C@H](C(=O)N[C@H]3C[C@H]4CN(CCO4)c4ccc5c(c4)c(c(-c4cccnc4[C@H](C)OC)n5CC)CC(C)(C)COC(=O)[C@@H]4CCCN(N4)C3=O)C(C)C)CC2)C1 (atropisomer, axis not shown) [EA189]
IC50 [2]: > 1000 nM

C=CC(=O)N1CCOC2(CCN(C(=O)N(C)[C@H](C(=O)N[C@H]3Cc4nccc(n4)-c4ccc5c(c4)c(c(-c4cccnc4[C@H](C)OC)n5CC)CC(C)(C)COC(=O)[C@@H]4CCCN(N4)C3=O)C(C)C)CC2)C1 (atropisomer, axis not shown) [EA191]
IC50 [2]: > 1000 nM

CCn1c(-c2cccnc2[C@H](C)OC)c2c3cc(ccc31)C1=CCCN(C1)C[C@H](NC(=O)[C@H](C(C)C)N(C)C(=O)N1CCC3(CCN(C(=O)/C=C/CN(C)C)C3)CC1)C(=O)N1CCC[C@H](N1)C(=O)OCC(C)(C)C2 (atropisomer, axis not shown) [EA192]
IC50 [2]: > 1000 nM

prop-2-en-1-yl N-[(7S,13S,19M)-21-ethyl-20-[2-[(1 S)-1-methoxyethyl]pyridin-3-yl]-17,17-dimethyl-8,14-dioxo-4,15-dioxa-3,9,21,27,28-pentaazapentacyclo[17.5.2.1^[2,5]0.1^[9,13]0.0^[22,26]]octacosa-1(25),2,5(28),19,22(26),23-hexaen-7-yl]carbamate
ring closure, isolated yield ([1]; amide bond, HATU/DIEA, 139.0 mM): 33%

tert-butyl ((6^3S,4S)-1^2-(2-((S)-1-methoxyethyl)pyridin-3-yl)-10,10-dimethyl-5,7-dioxo-1^1-(2,2,2-trifluoroethyl)-6^1,6^2,6^3,6^4,6^5,6^6-hexahydro-1^1H-8-oxa-1(5,3)-indola-6(1,3)-pyridazina-2(3,1)-azetidinacycloundecaphane-4-yl)carbamate
ring closure, isolated yield ([1]; ester bond, EDCI/HOBt/DIEA, 6.4 mM, 30.0 °C): 37%

tert-butyl ((6^3S,4S,Z)-11-ethyl-1^2-(2-((S)-1-methoxyethyl)pyridin-3-yl)-10,10-dimethyl-5,7-dioxo-6^1,6^2,6^3,6^4,6^5,6^6-hexahydro-1^1H-8-oxa-2(5,3)-oxadiazola-1(5,3)-indola-6(1,3)-pyridazinacycloundecaphane-4-yl)carbamate
ring closure, isolated yield ([1]; ester bond, EDCI/HOBt/DIEA, 6.8 mM): 18%

tert-butyl ((6^3S, 4S)-1^2-(2-((S)-1-methoxyethyl) pyridin-3-yl)-10,10-dimethyl-5,7-dioxo-1^1-(2,2,2-trifluoroethyl)-6^1,6^2,6^3,6^4,6^5,6^6-hexahydro-1^1H-8-oxa-1(5,3)-indola-6(1,3)-pyridazina-2(3,1)-piperidinacycloundecaphane-4-yl)carbamate
ring closure, isolated yield ([1]; ester bond, EDCI/HOBt/DIEA, 6.1 mM): 8% and 9%
